Structures can show the parent of a compound that is named as a salt.
Each compound was assayed against human MCH1 receptor (Homo sapiens, UniProt Q99705) (assay: MCHR1 antagonism functional assay, measuring cytoplasmic calcium concentration ([Ca2+]i);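 further: human MCH1 AequoScreen cells loaded with calcium-sensitive fluorescent dye, compounds preincubated one hour, then MCH given at its EC80, inhibition of ΔF/F rise relative to DMSO vehicle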).
Description: Evaluation of MCHR1 Antagonism in Functional Assay
Cells: human MCH1 (SLC1) AequoScreen® Cell Line (Perkin Elmer ES-370-A, lot No: M4W-A2)
MCH was dissolved in MilliQ water (1 mM), aliquots were taken from the stock solution, and were kept at −20° C. One aliquot was used only once.
Assay buffer: HBSS+2 mM probenecid, pH=7.4
Measuring of Cytoplasmic Calcium Concentration ([Ca^2+]i):
On the day of measurement the culture medium was removed from the cells and a fluorescent Ca^2+-sensitive dye (FLIPR Calcium 5 kit, Molecular Devices R8186) was added to the cells at a 4× dilution compared to the recommended dilution by the manufacturer, in a volume of 100 μl/well, and cells were incubated at 37° C. for 10 min. […] The vehicle (DMSO, control treatment), or the buffer containing test compounds were added to the cells in a volume of 50 μl/well, and cells were incubated at 37° C. for further 60 min.
1 mM stock solution was made from the agonist in distilled water, this solution was distributed into aliquots, which were kept at −20° C. until use. One aliquot was used only once. Fluorescence was detected before addition of MCH for 20 s, and after addition of MCH for 40 s. MCH was applied at an EC80 concentration, the EC80-values were determined individually for every plate/experiment. For this whole MCH dose-response curves were determined on one part of the plate, 4 parameter sigmoidal curves were fitted to the experimental data by nonlinear regression, MCH EC80 values were derived from the fitted curve. The raw fluorescence data were converted into ΔF/F values (the maximum fluorescence value obtained after addition of MCH was normalized to the baseline fluorescence: ΔF/F=(Fmax−Fbaseline)/Fbaseline). […] IC50 values of the tested compounds were determined by fitting 4 parameter sigmoidal curves to inhibition % data. Data processing, including fitting curves by nonlinear regression, was done by SoftMaxPro software.

| Structure (SMILES) | IC50 [nM] |
| --- | --- |
| CN1CCc2cc3cc(-n4ccc(OCc5ccc(Cl)cn5)cc4=O)ccc3n2CC1 [Example 11, 4-[(5-chloropyridin-2-yl)methoxy]-1-{3-methyl-1H,2H,3H,4H,5H-[1,4]diazepino[1,7-a]indol-9-yl}-1,2-dihydropyridin-2-one] | 9.6 |
| CN1CCc2cc3cc(-n4ccc(OCc5ccc(F)cn5)cc4=O)ccc3n2CC1 [Example 9, 4-[(5-fluoropyridin-2-yl)methoxy]-1-{3-methyl-1H,2H,3H,4H,5H-[1,4]diazepino[1,7-a]indol-9-yl}-1,2-dihydropyridin-2-one maleic acid salt] | 14.9 |
| CN1CCc2cc3cc(-n4ccc(OCc5ccccc5)cc4=O)ccc3n2CC1 [Example 10, 4-(benzyloxy)-1-{3-methyl-1H,2H,3H,4H,5H-[1,4]diazepino[1,7-a]indol-9-yl}-1,2-dihydropyridin-2-one hydrochloride salt] | 9.2 |
| CC(C)N1CCc2cc3cc(-n4ccc(OCc5ccc(F)cn5)cc4=O)ccc3n2CC1 [Example 18, 4-[(5-fluoropyridin-2-yl)methoxy]-1-[3-(propan-2-yl)-1H,2H,3H,4H,5H-[1,4]diazepino[1,7-a]indol-9-yl]-1,2-dihydropyridin-2-one maleic acid salt] | 15.2 |
| CC(C)N1CCc2cc3cc(-n4ccc(OCc5ccc(Cl)cn5)cc4=O)ccc3n2CC1 [Example 20, 4-[(5-chloropyridin-2-yl)methoxy]-1-[3-(propan-2-yl)-1H,2H,3H,4H,5H-[1,4]diazepino[1,7-a]indol-9-yl]-1,2-dihydropyridin-2-one maleic acid salt] | 6.2 |
| O=c1cc(OCc2ccc(Cl)cn2)ccn1-c1ccc2c(c1)cc1n2CCN(C2CC2)CC1 [Example 30, 4-[(5-chloropyridin-2-yl)methoxy]-1-{3-cyclopropyl-1H,2H,3H,4H,5H-[1,4]diazepino[1,7-a]indol-9-yl}-1,2-dihydropyridin-2-one maleic acid salt] | 17.2 |
| CC(C)N1CCc2cc3cc(-n4ccc(OCc5ccc(Cl)cc5)cc4=O)ccc3n2CC1 [Example 22, 4-[(4-chlorophenyl)methoxy]-1-[3-(propan-2-yl)-1H,2H,3H,4H,5H-[1,4]diazepino[1,7-a]indol-9-yl]-1,2-dihydropyridin-2-one maleic acid salt] | 7.2 |
| CCN1CCc2cc3cc(-n4ccc(OCc5ccc(Cl)cn5)cc4=O)ccc3n2CC1 [Example 15, 4-[(5-chloropyridin-2-yl)methoxy]-1-{3-etil-1H,2H,3H,4H,5H-[1,4]diazepino[1,7-a]indol-9-yl}-1,2-dihydropyridin-2-one] | 6.5 |
| CC(C)N1CCc2cc3cc(-n4ccc(OCc5ccccc5)cc4=O)ccc3n2CC1 [Example 19, 4-(benzyloxy)-1-[3-(propan-2-yl)-1H,2H,3H,4H,5H-[1,4]diazepino[1,7-a]indol-9-yl]-1,2-dihydropyridin-2-one hydrochloride salt] | 8.2 |
| CC(C)N1CCc2c(Cl)c3cc(-n4ccc(OCc5ccc(Cl)cn5)cc4=O)ccc3n2CC1 [Example 24, 1-[11-chloro-3-(propan-2-yl)-1H,2H,3H,4H,5H-[1,4]diazepino[1,7-a]indol-9-yl]-4-[(5-chloropyridin-2-yl)methoxy]-1,2-dihydropyridin-2-one maleic acid salt] | 18.5 |
| CC(C)N1CCc2c(Br)c3cc(-n4ccc(OCc5ccc(Cl)cn5)cc4=O)ccc3n2CC1 [Example 25, 1-[11-bromo-3-(propan-2-yl)-1H,2H,3H,4H,5H-[1,4]diazepino[1,7-a]indol-9-yl]-4-[(5-chloropyridin-2-yl)methoxy]-1,2-dihydropyridin-2-one maleic acid salt] | 30.7 |
| O=c1cc(OCc2ccc(Cl)cn2)ccn1-c1ccc2c(c1)c(Cl)c1n2CCN(CCF)CC1 | 15.5 |
| Cc1c2n(c3ccc(-n4ccc(OCc5ccc(Cl)cn5)cc4=O)cc13)CCN(C(C)C)CC2 [Example 34, 4-[(5-chloropyridin-2-yl)methoxy]-1-[11-methyl-3-(propan-2-yl)-1H,2H,3H,4H,5H-[1,4]diazepino[1,7-a]indol-9-yl]-1,2-dihydropyridin-2-one maleic acid salt] | 14.3 |
| CC(C)N1CCc2c(Cl)c3cc(-n4ccc(OCc5ccccc5)cc4=O)ccc3n2CC1 [Example 27, 4-(benzyloxy)-1-[11-chloro-3-(propan-2-yl)-1H,2H,3H,4H,5H-[1,4]diazepino[1,7-a]indol-9-yl]-1,2-dihydropyridin-2-one hydrochloride salt] | 29.9 |
| O=c1cc(OCc2ccc(Cl)cn2)ccn1-c1ccc2c(c1)cc1n2CCN(CC2CC2)CC1 [Example 28, 4-[(5-chloropyridin-2-yl)methoxy]-1-[3-(cyclopropylmethyl)-1H,2H,3H,4H,5H-[1,4]diazepino[1,7-a]indol-9-yl]-1,2-dihydropyridin-2-ond maleic acid salt] | 6.2 |
| CC(C)N1CCc2cc3cc(-n4ccc(OCc5ccccc5F)cc4=O)ccc3n2CC1 [Example 23, 4-[(2-fluorophenyl)methoxy]-1-[3-(propan-2-yl)-1H,2H,3H,4H,5H-[1,4]diazepino[1,7-a]indol-9-yl]-1,2-dihydropyridin-2-one hydrochloride salt] | 15.7 |
| CCN1CCc2cc3cc(-n4ccc(OCc5ccc(OC)cc5)cc4=O)ccc3n2CC1 [Example 14, 1-{3-ethyl-1H,2H,3H,4H,5H-[1,4]diazepino[1,7-a]indol-9-yl}-4-[(4-methoxyphenyl)methoxy]-1,2-dihydropyridin-2-one] | 7.9 |
| O=c1cc(OCc2ccccc2)ccn1-c1ccc2c(c1)cc1n2CCN(C2CC2)CC1 [Example 29, 4-(benzyloxy)-1-{3-cyclopropyl-1H,2H,3H,4H,5H-[1,4]diazepino[1,7-a]indol-9-yl}-1,2-dihydropyridin-2-one maleic acid salt] | 12.9 |
| CC(C)N1CCc2c(I)c3cc(-n4ccc(OCc5ccc(Cl)cn5)cc4=O)ccc3n2CC1 [Example 26, 4-[(5-chloropyridin-2-yl)methoxy]-1-[11-iodo-3-(propan-2-yl)-1H,2H,3H,4H,5H-[1,4]diazepino[1,7-a]indol-9-yl]-1,2-dihydropyridin-2-one maleic acid salt] | 38.8 |
| O=c1cc(OCc2ccc(Cl)cn2)ccn1-c1ccc2c(c1)cc1n2CCN(C2CCC2)CC1 [Example 31, 4-[(5-chloropyridin-2-yl)methoxy]-1-(3-cyclobutyl-1H,2H,3H,4H,5H-[1,4]diazepino[1,7-a]indol-9-yl)-1,2-dihydropyridin-2-one maleic acid salt] | 12.3 |
| O=c1cc(OCc2ccc(Cl)cn2)ccn1-c1ccc2c(c1)cc1n2CCN(CCF)CC1 | 10 |
| CC(=O)N1CCc2cc3cc(-n4ccc(OCc5ccc(Cl)cn5)cc4=O)ccc3n2CC1 [Example 17, 1-{3-acetyl-1H,2H,3H,4H,5H-[1,4]diazepino[1,7-a]indol-9-yl}-4-[(5-chloropyridin-2-yl)methoxy]-1,2-dihydropyridin-2-one] | 18.9 |

Second part, the compound after the results:

| IC50 [nM] | Structure (SMILES) |
| --- | --- |
| 17.7 | O=c1cc(OCc2ccccc2)ccn1-c1ccc2c(c1)cc1n2CCNCC1 [Example 3, 4-(benzyloxy)-1-{1H,2H,3H,4H,5H-[1,4]diazepino[1,7-a]indol-9-yl}-1,2-dihydropyridin-2-one maleic acid salt] |
| 12 | O=c1cc(OCc2ccc(F)cc2)ccn1-c1ccc2c(c1)cc1n2CCNCC1 [Example 5, 1-{1H,2H,3H,4H,5H-[1,4]diazepino[1,7-a]indol-9-yl}-4-[(4-fluorophenyl)methoxy]-1,2-dihydropyridin-2-one hydrochloride salt] |
| 27.7 | O=c1cc(OCc2ccccc2F)ccn1-c1ccc2c(c1)cc1n2CCNCC1 [Example 7, 1-{1H,2H,3H,4H,5H-[1,4]diazepino[1,7-a]indol-9-yl}-4-[(2-fluorphenyl)methoxy]-1,2-dihydropyridin-2-one hydrochloride salt] |
| 11.9 | O=c1cc(OCc2ccc(Cl)cc2)ccn1-c1ccc2c(c1)cc1n2CCNCC1 [Example 6, 4-[(4-chlorophenyl)methoxy]-1-{1H,2H,3H,4H,5H-[1,4]diazepino[1,7-a]indol-9-yl}-1,2-dihydropyridin-2-one hydrochloride salt] |
| 17.6 | O=c1cc(OCc2ccc(F)cn2)ccn1-c1ccc2c(c1)cc1n2CCNCC1 [Example 1, 1-{1H,2H,3H,4H,5H-[1,4]diazepino[1,7-a]indol-9-yl}-4-[(5-fluoropyridin-2-yl)methoxy]-1,2-dihydropyridin-2-one hydrochloride salt] |
| 9.8 | O=c1cc(OCc2ccc(Cl)cn2)ccn1-c1ccc2c(c1)cc1n2CCNCC1 [Example 4, 4-[(5-chloropyridin-2-yl)methoxy]-1-{1H,2H,3H,4H,5H-[1,4]diazepino[1,7-a]indol-9-yl}-1,2-dihydropyridin-2-one dihydrochloride salt] |
| 8 | CC(C)N1CCc2cc3cc(-n4ccc(OCc5ccc(F)cc5)cc4=O)ccc3n2CC1 [Example 21, 4-[(4-fluorophenyl)methoxy]-1-[3-(propan-2-yl)-1H,2H,3H,4H,5H-[1,4]diazepino[1,7-a]indol-9-yl]-1,2-dihydropyridin-2-one] |
| 123 | O=c1cc(OCc2ccc(C(F)(F)F)cc2)ccn1-c1ccc2c(c1)cc1n2CCNCC1 [Example 8, 1-{1H,2H,3H,4H,5H-[1,4]diazepino[1,7-a]indol-9-il}-4-{[4-(trifluoromethyl)phenyl]methoxy}-1,2-dihydropyridin-2-one hydrochloride salt] |
| 9 | CN1CCc2cc3cc(-n4ccc(OCc5ccc(Cl)cc5)cc4=O)ccc3n2CC1 [Example 12, 4-[(4-chlorophenol)methoxy]-1-{3-methyl-1H,2H,3H,4H,5H-[1,4]diazepino[1,7-a]indol-9-yl}-1,2-dihydropyridin-2-one maleic acid salt] |
| 7.2 | CCN1CCc2cc3cc(-n4ccc(OCc5ccc(F)cc5)cc4=O)ccc3n2CC1 [Example 16, 1-{3-ethyl-1H,2H,3H,4H,5H-[1,4]diazepino[1,7-a]indol-9-yl}-4-[(4-fluorophenyl)methoxy]-1,2-dihydropyridin-2-one] |
| 32.9 | COc1ccc(COc2ccn(-c3ccc4c(c3)cc3n4CCNCC3)c(=O)c2)cc1 [Example 2, 1-{1H,2H,3H,4H,5H-[1.4]diazepino[1,7-a]indol-9-yl}-4-[(4-methoxyphenyl)-methoxy]-1,2-dihydropyridin-2-one hydrochloride salt] |
